Patent US6770442B2, “Methods for modulating the solubility of synthetic polymers” (Boston Probes, Inc., priority 1998, dated 2004)

What was measured:
[1] = UV Tm analysis of unimolecular PNA hairpins (9 bp stem duplex); type: physicochemical; conditions: for cooperativity of sigmoidal melting transition (normalized absorbance vs. temperature): each probe at [1], FIG. 11
Experimental: The five Tm Samples of a dilution series of a particular unimolecular probe to be analyzed were simultaneously examined using a Cary 100 Bio UV-Visible Spectrophotometer (Varian Instruments) equipped with a 6×6 thermostatable multicell block running Win UV Bio application software package. To a 10×10 UV cell (Starna Cells, P/N 21-Q-10) was added a 7.2 mm stir bar and the 2.5 mL of each sample of the dilution series. The stirring accessory was used during all analysis. All samples were thermally denatured and reannealed prior to data collection by having the instrument rapidly ramp the temperature to a point above the melting temperature and then holding that temperature for 5-10 minutes before returning to the starting temperature. The temperature range over which data was collected was varied in response to the expected Tm which was roughly determined during the premelt and prereannealing step. Regardless of the temperature range, the temperature ramp rate for both melting “M” and reannealing “R” was always 0.5°C./min. The absorbance (260 nm, averaged over a 3 second collection) was plotted vs. the temperature of the multicell block.
After the Tm analysis was performed in Tm Buffer, to each cell was added 0.5 μL of 5M MgCl2 to thereby prepare a sample containing 1 mM MgCl2. The dilution effect was considered to be negligible. The Tm analysis was then performed again to determine whether the presence of MgCl2 had any; effect on the Tm of the unimolecular probe.
After the Tm analysis was performed in Tm Buffer and 1 mM MgCl2, to each cell was added 42 μL of saturated NaCl (approximately 6.11 M/L). The dilution effect was again considered to be negligible. The Tm analysis was then performed again to determine whether the presence of approximately 100 mM NaCl had any effect on the Tm of the unimolecular probe.

[2] = Solubility of labeled PNA oligomer in aqueous buffer
[3] = [1] approx. 7.5 μM, Buf, Mg & Na: Tm Buffer, 1 mM MgCl2 and 100 mM NaCl
[4] = [1] approx. 7.5 μM, Buf, Mg: Tm Buffer and 1 mM MgCl2
[5] = [2] approx. 3.75 μM, Buf, Mg & Na: Tm Buffer, 1 mM MgCl2 and 100 mM NaCl
[6] = [2] approx. 3.75 μM, Buf, Mg: Tm Buffer and 1 mM MgCl2
[7] = [2] approx. 3.75 μM, Buf: Tm Buffer
[8] = [3] approx. 1.87 μM, Buf, Mg & Na: Tm Buffer, 1 mM MgCl2 and 100 mM NaCl
[9] = [3] approx. 1.87 μM, Buf, Mg: Tm Buffer and 1 mM MgCl2
[10] = [3] approx. 1.87 μM, Buf: Tm Buffer
[11] = [4] approx. 0.94 μM, Buf, Mg & Na: Tm Buffer, 1 mM MgCl2 and 100 mM NaCl
[12] = [4] approx. 0.94 μM, Buf, Mg: Tm Buffer and 1 mM MgCl2
[13] = [4] approx. 0.94 μM, Buf: Tm Buffer
[14] = [5] approx. 0.468 μM, Buf, Mg & Na: Tm Buffer, 1 mM MgCl2 and 100 mM NaCl
[15] = [5] approx. 0.468 μM, Buf, Mg: Tm Buffer and 1 mM MgCl2
[16] = [5] approx. 0.468 μM, Buf: Tm Buffer

H-OEE-ATA-TAT-TGG-OO-CCA-ATA-TAT-EEK-NH2 [P3N]
Tm, melting M [1, 3]: 83.1 °C | Tm, reannealing R [1, 3]: 82.9 °C | Tm, melting M [1, 4]: 83.1 °C | Tm, reannealing R [1, 4]: 82.4 °C | Tm, melting M [1, 5]: 83.1 °C | Tm, reannealing R [1, 5]: 81.4 °C | Tm, melting M [1, 6]: 83.1 °C | Tm, reannealing R [1, 6]: 81.9 °C | Tm, melting M [1, 7]: 82.5 °C | Tm, reannealing R [1, 7]: 82.4 °C | Tm, melting M [1, 8]: 83.5 °C | Tm, reannealing R [1, 8]: 82.9 °C | Tm, melting M [1, 9]: 83.0 °C | Tm, reannealing R [1, 9]: 82.5 °C | Tm, melting M [1, 10]: 83.0 °C | Tm, reannealing R [1, 10]: 82.4 °C | Tm, melting M [1, 11]: 83.5 °C | Tm, reannealing R [1, 11]: 83.0 °C | Tm, melting M [1, 12]: 83.0 °C | Tm, reannealing R [1, 12]: 83.1 °C | Tm, melting M [1, 13]: 83.0 °C | Tm, reannealing R [1, 13]: 82.5 °C | Tm, melting M [1, 14]: 83.5 °C | Tm, reannealing R [1, 14]: 83.1 °C | Tm, melting M [1, 15]: 83.0 °C | Tm, reannealing R [1, 15]: 82.6 °C | Tm, melting M [1, 16]: 83.0 °C | Tm, reannealing R [1, 16]: 82.6 °C | cooperativity of sigmoidal melting transition (normalized absorbance vs. temperature) [1]: most cooperative sigmoidal transition

Flu-OEE-ATA-TAT-TGG-CTG-ATC-CAA-TAT-AT-EE-K(dabcyl)-NH2 [P4]
concentration up to which completely soluble [2]: ≥ 7.5 μM/L | Tm, melting M [1, 3]: 82.6 °C | Tm, reannealing R [1, 3]: 81.8 °C | Tm, melting M [1, 4]: 81.6 °C | Tm, reannealing R [1, 4]: 81.0 °C | Tm, melting M [1, 5]: 82.6 °C | Tm, reannealing R [1, 5]: 82.4 °C | Tm, melting M [1, 6]: 81.6 °C | Tm, reannealing R [1, 6]: 81.5 °C | Tm, melting M [1, 7]: 81.6 °C | Tm, reannealing R [1, 7]: 81.4 °C | Tm, melting M [1, 8]: 82.6 °C | Tm, reannealing R [1, 8]: 82.5 °C | Tm, melting M [1, 9]: 82.0 °C | Tm, reannealing R [1, 9]: 81.5 °C | Tm, melting M [1, 10]: 82.1 °C | Tm, reannealing R [1, 10]: 81.5 °C | Tm, melting M [1, 11]: 82.5 °C | Tm, reannealing R [1, 11]: 82.5 °C | Tm, melting M [1, 12]: 82.0 °C | Tm, reannealing R [1, 12]: 81.1 °C | Tm, melting M [1, 13]: 82.0 °C | Tm, reannealing R [1, 13]: 81.5 °C | Tm, melting M [1, 14]: 83.0 °C | Tm, reannealing R [1, 14]: 82.1 °C | Tm, melting M [1, 15]: 82.0 °C | Tm, reannealing R [1, 15]: 81.6 °C | Tm, melting M [1, 16]: 81.5 °C | Tm, reannealing R [1, 16]: 81.1 °C

H-ATA-TAT-TGG-CTG-ATC-CAA-TAT-AT-KK-NH2 [PNAD, reference compound]
Tm, melting M [1, 3]: 80.6 °C | Tm, reannealing R [1, 3]: 80.4 °C | Tm, melting M [1, 4]: 80.6 °C | Tm, reannealing R [1, 4]: 80.3 °C | Tm, melting M [1, 5]: 81.5 °C | Tm, melting M [1, 6]: 81.1 °C | Tm, reannealing R [1, 6]: 80.4 °C | Tm, melting M [1, 7]: 81.1 °C | Tm, reannealing R [1, 7]: 81.0 °C | Tm, melting M [1, 8]: 81.0 °C | Tm, reannealing R [1, 8]: 81.4 °C | Tm, melting M [1, 9]: 81.1 °C | Tm, reannealing R [1, 9]: 80.4 °C | Tm, melting M [1, 10]: 82.0 °C | Tm, reannealing R [1, 10]: 81.0 °C | Tm, melting M [1, 11]: 81.5 °C | Tm, reannealing R [1, 11]: 80.5 °C | Tm, melting M [1, 12]: 80.5 °C | Tm, reannealing R [1, 12]: 81.0 °C | Tm, melting M [1, 13]: 81.5 °C | Tm, reannealing R [1, 13]: 81.5 °C | Tm, melting M [1, 14]: 82.1 °C | Tm, reannealing R [1, 14]: 80.6 °C | Tm, melting M [1, 15]: 80.5 °C | Tm, reannealing R [1, 15]: 80.5 °C | Tm, melting M [1, 16]: 81.5 °C | Tm, reannealing R [1, 16]: 81.1 °C | cooperativity of sigmoidal melting transition (normalized absorbance vs. temperature) [1]: least cooperative sigmoidal transition

H-OEE-ATA-TAT-TGG-CTG-ATC-CAA-TAT-AT-EEK-NH2 [P4N]
Tm, melting M [1, 3]: 82.1 °C | Tm, reannealing R [1, 3]: 82.3 °C | Tm, melting M [1, 4]: 81.6 °C | Tm, reannealing R [1, 4]: 81.3 °C | Tm, melting M [1, 5]: 82.1 °C | Tm, reannealing R [1, 5]: 82.3 °C | Tm, melting M [1, 6]: 81.6 °C | Tm, reannealing R [1, 6]: 81.3 °C | Tm, melting M [1, 7]: 82.1 °C | Tm, reannealing R [1, 7]: 81.5 °C | Tm, melting M [1, 8]: 82.5 °C | Tm, melting M [1, 9]: 82.1 °C | Tm, reannealing R [1, 9]: 81.4 °C | Tm, melting M [1, 10]: 82.1 °C | Tm, reannealing R [1, 10]: 81.5 °C | Tm, melting M [1, 11]: 82.0 °C | Tm, reannealing R [1, 11]: 82.0 °C | Tm, melting M [1, 12]: 82.0 °C | Tm, melting M [1, 13]: 82.5 °C | Tm, reannealing R [1, 13]: 81.1 °C | Tm, melting M [1, 14]: 84.0 °C | Tm, reannealing R [1, 14]: 81.6 °C | Tm, melting M [1, 15]: 82.0 °C | Tm, reannealing R [1, 15]: 81.1 °C | Tm, melting M [1, 16]: 82.0 °C | Tm, reannealing R [1, 16]: 80.1 °C | cooperativity of sigmoidal melting transition (normalized absorbance vs. temperature) [1]: only a slightly less cooperative a transition as compared with probe P3N
